Tests used:
Plasmodium yoelii = assay type: in vivo; conditions: P. yoelii, CF1 mice, oral gavage in PEG-400, 5 mg/kg × 4 days
[1] = ref 34 (2), ref 35 (6); cited from earlier work
[2] = cited from earlier work

Row | Compound | in vivo %parasitemia reduction on day 5 at 5 mg/kg/4d (Plasmodium yoelii) | antimicrobial activity [1] | cytotoxicity activity [2]
1 | COC1=CC2=N/C1=C\NCC/C=C/CCCCCCCCc1ccc2[nH]1.Cl [(E/Z)-7, geometric isomers of Tambjamine MYP1] | ineffective |  | 
2 | CCCCCc1cc(/C=C2\N=C(c3ccc(Cc4ccc(O)cc4)[nH]3)C=C2OC)[nH]c1C.Cl [Compound 2, 4-((4’-Methoxy-5’-((5-methyl-4-pentyl-1H-pyrrol-2-yl)methylene)-1H,5’H-[2,2’-bipyrrol]-5-yl)methyl)phenol] | did not show efficacy | good | good
3 | CCCCc1cc(/C=C2\N=C(c3ccc(Cc4ccc(O)cc4)[nH]3)C=C2OC)[nH]c1C.Cl [Compound 3, 4-((5’-((4-Butyl-5-methyl-1H-pyrrol-2-yl)methylene)-4’-methoxy-1H,5’H-[2,2’-bipyrrol]-5-yl)methyl)phenol] | did not show efficacy |  | 
4 | COC1=CC(c2ccc[nH]2)=N/C1=C\c1cc(CCCCC(C)C)c(C)[nH]1.Cl [Compound 6, Isoheptylprodigiosin] |  | moderate | 
5 | C=CCCCCCCCCc1ccc(C2=N/C(=C\NCCC=C)C(OC)=C2)[nH]1.Cl [Compound 39, N-((5-(dec-9-en-1-yl)-4’-methoxy-1H,5’H-[2,2’-bipyrrol]-5’-ylidene)methyl)but-3-en-1-amine] | ineffective |  | 

Source: PMC8244818 (Journal of medicinal chemistry, 2021)
